From the supplement of paper PMC11451515

Columns and labels:
Details in all cases: 48 h
NOMO1 [1] = experiment: AUC of viability dose-response curve (% viability x log10 dose units); higher = less sensitive
Method in brief: (§1)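 In 1536-well plates, leukemia cells adapted to each medium (500 or 1000 cells/well) were exposed for 48 h at 37°C to library compounds in DMSO across 11 threefold doses, 47 μM down to 0.79 nM. Viability was read by CellTiter-Glo One luminescence and normalised per plate to DMSO and cell-free wells. A four-parameter log-logistic fit over log10 doses was integrated by trapezoidal rule. This yielded the area under the curve, with over-full-viability curves scaled and quality-control failures dropped.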

P12-Ichikawa [2] = experiment: as above
Method in brief: as §1

SEM cells [3] = experiment: as above
Method in brief: as §1

NOMO1 [4] = experiment: cell viability relative to DMSO control; higher = less cytotoxic
Method in brief: (§2)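 Viability is a per-plate percentage relative to DMSO wells, with cell-free wells as background. CellTiter-Glo One luminescence was read after 48 h at 37°C on 1536-well plates (5 μl) of NOMO1 or SEM (500 cells/well) or P12-Ichikawa (1000 cells/well) leukemia cells. The cells had been adapted for at least four passages in each medium and pin-dosed with library compounds in DMSO from 47 μM to 0.79 nM in 11 threefold steps.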

P12-Ichikawa [5] = experiment: as above
Method in brief: as §2

SEM cells [6] = experiment: as above
Method in brief: as §2

CC\1=C(C(\N=C(/N1)C2=CC(=NC=C2)Cl)C3=C(F)C=C(Cl)C=C3)/C(=O)NC4=C(F)C=C5[NH]N=CC5=C4 (stereo unspecified)
AUC of viability dose-response curve
Details | NOMO1 [1] | P12-Ichikawa [2] | SEM cells [3]
HPLM + 10% dialyzed FBS | 459 | 440 | 408
RPMI 5 mM glucose + 10% FBS | 443 | 439 | 405
RPMI 5 mM glucose + 10% dialyzed FBS | 457 | 441 | 423

cell viability [%]
Details | NOMO1 [4] | P12-Ichikawa [5] | SEM cells [6]
HPLM + 10% dialyzed FBS, 0.000781 µM | 85.8 | 103 | 82.1
HPLM + 10% dialyzed FBS, 0.00234 µM | 97.5 | 103 | 84.4
HPLM + 10% dialyzed FBS, 0.00702 µM | 108 | 109 | 100
HPLM + 10% dialyzed FBS, 0.0211 µM | 116 | 112 | 94.9
HPLM + 10% dialyzed FBS, 0.0632 µM | 112 | 111 | 93.2
HPLM + 10% dialyzed FBS, 0.19 µM | 96.7 | 107 | 99.6
HPLM + 10% dialyzed FBS, 0.569 µM | 107 | 112 | 104
HPLM + 10% dialyzed FBS, 1.71 µM | 110 | 115 | 103
HPLM + 10% dialyzed FBS, 5.12 µM | 105 | 106 | 81.2
HPLM + 10% dialyzed FBS, 15.4 µM | 115 | 77.5 | 54.5
HPLM + 10% dialyzed FBS, 46.1 µM | 27 | 4.67 | 10.8
RPMI 5 mM glucose + 10% FBS, 0.000781 µM | 101 | 87.6 | 102
RPMI 5 mM glucose + 10% FBS, 0.00234 µM | 100 | 114 | 86.8
RPMI 5 mM glucose + 10% FBS, 0.00702 µM | 101 | 118 | 97.3
RPMI 5 mM glucose + 10% FBS, 0.0211 µM | 104 | 104 | 117
RPMI 5 mM glucose + 10% FBS, 0.0632 µM | 95.3 | 102 | 94.5
RPMI 5 mM glucose + 10% FBS, 0.19 µM | 93.4 | 113 | 99.1
RPMI 5 mM glucose + 10% FBS, 0.569 µM | 95.7 | 110 | 99.9
RPMI 5 mM glucose + 10% FBS, 1.71 µM | 98.2 | 113 | 85.4
RPMI 5 mM glucose + 10% FBS, 5.12 µM | 89 | 110 | 66.3
RPMI 5 mM glucose + 10% FBS, 15.4 µM | 85.3 | 71.6 | 51.7
RPMI 5 mM glucose + 10% FBS, 46.1 µM | 29.4 | 8.24 | 6.87
RPMI 5 mM glucose + 10% dialyzed FBS, 0.000781 µM | 94.7 | 105 | 87.7
RPMI 5 mM glucose + 10% dialyzed FBS, 0.00234 µM | 96.6 | 121 | 90.3
RPMI 5 mM glucose + 10% dialyzed FBS, 0.00702 µM | 122 | 110 | 103
RPMI 5 mM glucose + 10% dialyzed FBS, 0.0211 µM | 111 | 116 | 108
RPMI 5 mM glucose + 10% dialyzed FBS, 0.0632 µM | 108 | 118 | 102
RPMI 5 mM glucose + 10% dialyzed FBS, 0.19 µM | 99.8 | 118 | 122
RPMI 5 mM glucose + 10% dialyzed FBS, 0.569 µM | 106 | 121 | 96.3
RPMI 5 mM glucose + 10% dialyzed FBS, 1.71 µM | 98.2 | 124 | 101
RPMI 5 mM glucose + 10% dialyzed FBS, 5.12 µM | 82.7 | 112 | 81.3
RPMI 5 mM glucose + 10% dialyzed FBS, 15.4 µM | 97.3 | 82.9 | 55.2
RPMI 5 mM glucose + 10% dialyzed FBS, 46.1 µM | 40.7 | 14.7 | 13.5

CC(N[C@H]1C[C@@H]1c1ccccc1)c1ccc2c(c1)OCCO2 (stereo partly specified)
AUC of viability dose-response curve
Details | NOMO1 [1] | P12-Ichikawa [2] | SEM cells [3]
HPLM + 10% dialyzed FBS | 434 | 458 | 475
RPMI 5 mM glucose + 10% FBS | 470 | 469 | 467
RPMI 5 mM glucose + 10% dialyzed FBS | 470 | 451 | 471

cell viability [%]
Details | NOMO1 [4] | P12-Ichikawa [5] | SEM cells [6]
HPLM + 10% dialyzed FBS, 0.000781 µM | – | 119 | 111
HPLM + 10% dialyzed FBS, 0.00234 µM | – | 117 | 135
HPLM + 10% dialyzed FBS, 0.00702 µM | – | 121 | 116
HPLM + 10% dialyzed FBS, 0.0211 µM | – | 128 | 122
HPLM + 10% dialyzed FBS, 0.0632 µM | – | 119 | 110
HPLM + 10% dialyzed FBS, 0.19 µM | – | 118 | 122
HPLM + 10% dialyzed FBS, 0.569 µM | – | 116 | 126
HPLM + 10% dialyzed FBS, 1.71 µM | – | 113 | 126
HPLM + 10% dialyzed FBS, 5.12 µM | – | 107 | 141
HPLM + 10% dialyzed FBS, 15.4 µM | – | 112 | 116
HPLM + 10% dialyzed FBS, 46.1 µM | – | 104 | 109
RPMI 5 mM glucose + 10% FBS, 0.000781 µM | 105 | – | 99.3
RPMI 5 mM glucose + 10% FBS, 0.00234 µM | 117 | – | 95.1
RPMI 5 mM glucose + 10% FBS, 0.00702 µM | 116 | – | 94.7
RPMI 5 mM glucose + 10% FBS, 0.0211 µM | 106 | – | 97.7
RPMI 5 mM glucose + 10% FBS, 0.0632 µM | 103 | – | 107
RPMI 5 mM glucose + 10% FBS, 0.19 µM | 102 | – | 100
RPMI 5 mM glucose + 10% FBS, 0.569 µM | 113 | – | 108
RPMI 5 mM glucose + 10% FBS, 1.71 µM | 112 | – | 110
RPMI 5 mM glucose + 10% FBS, 5.12 µM | 114 | – | 107
RPMI 5 mM glucose + 10% FBS, 15.4 µM | 98.7 | – | 98.4
RPMI 5 mM glucose + 10% FBS, 46.1 µM | 109 | – | 93.5
RPMI 5 mM glucose + 10% dialyzed FBS, 0.000781 µM | 115 | – | 121
RPMI 5 mM glucose + 10% dialyzed FBS, 0.00234 µM | 124 | – | 123
RPMI 5 mM glucose + 10% dialyzed FBS, 0.00702 µM | 115 | – | 100
RPMI 5 mM glucose + 10% dialyzed FBS, 0.0211 µM | 126 | – | 121
RPMI 5 mM glucose + 10% dialyzed FBS, 0.0632 µM | 119 | – | 110
RPMI 5 mM glucose + 10% dialyzed FBS, 0.19 µM | 114 | – | 134
RPMI 5 mM glucose + 10% dialyzed FBS, 0.569 µM | 126 | – | 138
RPMI 5 mM glucose + 10% dialyzed FBS, 1.71 µM | 123 | – | 111
RPMI 5 mM glucose + 10% dialyzed FBS, 5.12 µM | 110 | – | 119
RPMI 5 mM glucose + 10% dialyzed FBS, 15.4 µM | 118 | – | 119
RPMI 5 mM glucose + 10% dialyzed FBS, 46.1 µM | 111 | – | 92.6

CC[C@H](CC[C@@H](C)[C@H]1CC[C@H]2[C@@H]3C\C=C/4C[C@@H](O)CC[C@]4(C)[C@H]3CC[C@]12C)C(C)C
AUC of viability dose-response curve
Details | NOMO1 [1] | P12-Ichikawa [2] | SEM cells [3]
HPLM + 10% dialyzed FBS | 420 | 448 | 452
RPMI 5 mM glucose + 10% FBS | 449 | 453 | 469
RPMI 5 mM glucose + 10% dialyzed FBS | 431 | 446 | 467

cell viability [%]
Details | NOMO1 [4] | P12-Ichikawa [5] | SEM cells [6]
HPLM + 10% dialyzed FBS, 0.000781 µM | 97.3 | 117 | 119
HPLM + 10% dialyzed FBS, 0.00234 µM | 126 | 111 | 130
HPLM + 10% dialyzed FBS, 0.00702 µM | 123 | 123 | 123
HPLM + 10% dialyzed FBS, 0.0211 µM | 117 | 119 | 139
HPLM + 10% dialyzed FBS, 0.0632 µM | 131 | 112 | 129
HPLM + 10% dialyzed FBS, 0.19 µM | 124 | 111 | 128
HPLM + 10% dialyzed FBS, 0.569 µM | 114 | 111 | 114
HPLM + 10% dialyzed FBS, 1.71 µM | 107 | 110 | 116
HPLM + 10% dialyzed FBS, 5.12 µM | 95.6 | 99.4 | 116
HPLM + 10% dialyzed FBS, 15.4 µM | 55.5 | 103 | 122
HPLM + 10% dialyzed FBS, 46.1 µM | 35.6 | 75.9 | 95.8
RPMI 5 mM glucose + 10% FBS, 0.000781 µM | 103 | 112 | 117
RPMI 5 mM glucose + 10% FBS, 0.00234 µM | 114 | 119 | 114
RPMI 5 mM glucose + 10% FBS, 0.00702 µM | 113 | 120 | 126
RPMI 5 mM glucose + 10% FBS, 0.0211 µM | 106 | 121 | 119
RPMI 5 mM glucose + 10% FBS, 0.0632 µM | 108 | 120 | 131
RPMI 5 mM glucose + 10% FBS, 0.19 µM | 115 | 118 | 116
RPMI 5 mM glucose + 10% FBS, 0.569 µM | 102 | 111 | 124
RPMI 5 mM glucose + 10% FBS, 1.71 µM | 103 | 107 | 110
RPMI 5 mM glucose + 10% FBS, 5.12 µM | 96.1 | 106 | 115
RPMI 5 mM glucose + 10% FBS, 15.4 µM | 92.4 | 108 | 114
RPMI 5 mM glucose + 10% FBS, 46.1 µM | 22.3 | 92.2 | 92.3
RPMI 5 mM glucose + 10% dialyzed FBS, 0.000781 µM | 105 | 110 | 124
RPMI 5 mM glucose + 10% dialyzed FBS, 0.00234 µM | 120 | 118 | 144
RPMI 5 mM glucose + 10% dialyzed FBS, 0.00702 µM | 114 | 110 | 122
RPMI 5 mM glucose + 10% dialyzed FBS, 0.0211 µM | 107 | 107 | 115
RPMI 5 mM glucose + 10% dialyzed FBS, 0.0632 µM | 116 | 108 | 147
RPMI 5 mM glucose + 10% dialyzed FBS, 0.19 µM | 107 | 110 | 126
RPMI 5 mM glucose + 10% dialyzed FBS, 0.569 µM | 97.3 | 109 | 125
RPMI 5 mM glucose + 10% dialyzed FBS, 1.71 µM | 102 | 103 | 129
RPMI 5 mM glucose + 10% dialyzed FBS, 5.12 µM | 93.5 | 103 | 138
RPMI 5 mM glucose + 10% dialyzed FBS, 15.4 µM | 72.5 | 105 | 121
RPMI 5 mM glucose + 10% dialyzed FBS, 46.1 µM | 26.3 | 93.1 | 94.6
